{"source": "patent EP0407583A1", "about": "“DERIVATIVES OF DICHLOR[…] ACYLAMIDO[…] AND INSECTICIDAL, FU[…] HEMATOCIDAL PREPARATIONS BASED ON THEM” (priority 1989, dated 1990)", "key": {"Verticillium albo-atrum [1]": {"test_system": "Verticillium albo-atrum", "experiment": "Inhibition of phytopathogenic fungi, field test on affected potato plants", "assay_type": "in vivo", "details": "5 m^2 plots of affected potato plants sprayed", "source_text": "(§1) For field tests the plots of 5 m^2 in size with potato plants affected by Fusarium moniliforme, Venturia inaequalis, Rhyzoctonia violaceae, Botrytis cinereae, Verticillium albo-atrum, Diplodia zeae, Fusarium oxysporum, Rhoma betae, Rhyzoctonia aderholdii, Aspergillus niger, Alternaria sobani, Botrytis allii, Aspergillus fumigatis, Fusarium culmorum, Penicillium cyclopium were sprayed with the fungicide of the invention. To compare, the similar plots of the affected potato plants were aprayed with the known compositions indicated above."}, "Botrytis cinereae [2]": {"test_system": "Botrytis cinereae", "experiment": "Inhibition of phytopathogenic fungi, field test on affected potato plants", "assay_type": "in vivo", "details": "5 m^2 plots of affected potato plants sprayed", "source_text": "as §1"}, "Aspergillus niger [3]": {"test_system": "Aspergillus niger", "experiment": "Inhibition of phytopathogenic fungi, field test on affected potato plants", "assay_type": "in vivo", "details": "5 m^2 plots of affected potato plants sprayed", "source_text": "as §1"}, "Fusarium culmorum [4]": {"test_system": "Fusarium culmorum", "experiment": "Inhibition of phytopathogenic fungi, field test on affected potato plants", "assay_type": "in vivo", "details": "5 m^2 plots of affected potato plants sprayed", "source_text": "as §1"}, "Fusarium moniliforme [5]": {"test_system": "Fusarium moniliforme", "experiment": "Inhibition of phytopathogenic fungi, field test on affected potato plants", "assay_type": "in vivo", "details": "5 m^2 plots of affected potato plants sprayed", "source_text": "as §1"}, "Venturia inaequalis [6]": {"test_system": "Venturia inaequalis", "experiment": "Inhibition of phytopathogenic fungi, field test on affected potato plants", "assay_type": "in vivo", "details": "5 m^2 plots of affected potato plants sprayed", "source_text": "as §1"}, "Penicillium cyclopium [7]": {"test_system": "Penicillium cyclopium", "experiment": "Inhibition of phytopathogenic fungi, field test on affected potato plants", "assay_type": "in vivo", "details": "5 m^2 plots of affected potato plants sprayed", "source_text": "as §1"}, "Aspergillus fumigatis [8]": {"test_system": "Aspergillus fumigatis", "experiment": "Inhibition of phytopathogenic fungi, field test on affected potato plants", "assay_type": "in vivo", "details": "5 m^2 plots of affected potato plants sprayed", "source_text": "as §1"}, "Alternaria sobani [9]": {"test_system": "Alternaria sobani", "experiment": "Inhibition of phytopathogenic fungi, field test on affected potato plants", "assay_type": "in vivo", "details": "5 m^2 plots of affected potato plants sprayed", "source_text": "as §1"}, "Rhoma betae [10]": {"test_system": "Rhoma betae", "experiment": "Inhibition of phytopathogenic fungi, field test on affected potato plants", "assay_type": "in vivo", "details": "5 m^2 plots of affected potato plants sprayed", "source_text": "as §1"}, "Rhyzoctonia violaceae [11]": {"test_system": "Rhyzoctonia violaceae", "experiment": "Inhibition of phytopathogenic fungi, field test on affected potato plants", "assay_type": "in vivo", "details": "5 m^2 plots of affected potato plants sprayed", "source_text": "as §1"}, "Rhyzoctonia aderholdii [12]": {"test_system": "Rhyzoctonia aderholdii", "experiment": "Inhibition of phytopathogenic fungi, field test on affected potato plants", "assay_type": "in vivo", "details": "5 m^2 plots of affected potato plants sprayed", "source_text": "as §1"}, "Botrytis allii [13]": {"test_system": "Botrytis allii", "experiment": "Inhibition of phytopathogenic fungi, field test on affected potato plants", "assay_type": "in vivo", "details": "5 m^2 plots of affected potato plants sprayed", "source_text": "as §1"}, "Fusarium oxysporum [14]": {"test_system": "Fusarium oxysporum", "experiment": "Inhibition of phytopathogenic fungi, field test on affected potato plants", "assay_type": "in vivo", "details": "5 m^2 plots of affected potato plants sprayed", "source_text": "as §1"}, "Diplodia zeae [15]": {"test_system": "Diplodia zeae", "experiment": "Inhibition of phytopathogenic fungi, field test on affected potato plants", "assay_type": "in vivo", "details": "5 m^2 plots of affected potato plants sprayed", "source_text": "as §1"}, "Solubility (qualitative)": {"experiment": "Solubility (qualitative)", "details": "water, alcohols, acetone"}, "Verticillium albo-atrum [16]": {"test_system": "Verticillium albo-atrum", "experiment": "Inhibition of phytopathogenic fungi growth, laboratory test on potato-dextrose agar", "assay_type": "cell-based", "details": "active principle 0.01 % by mass in potato-dextrose agar", "description": "(§2) A fungicidal composition based on this compound was prepared in the form of a 0.01% solution thereof in distilled water. A fungicidal action of the composition, according to the invention, was tested for inhibition of vegetative fungi growth such as Fusarium moniliforme, Ventura inaequalis, Rhyzoctonia ciolaceae, Botrytis cinereae, Verticillium albo-atrum, Diplodia zeae, Fusarium oxysporum, Rhoma betae, Rhyzoctonia aderholdii, Aspergillus niger, Alternaria sobani, Botrytis allii, Aspergillus fumigatis, Fusarium culmorum, Penicillium cyclopium affecting potato, sugar beet, cotton seeds either in laboratory or field conditions. For testing it to the Petri dishes containing potato-dextrose agar the composition of the invention was.added at the concentration of an active principle of 0.01 % by mass. The Petri dishes containing the same agar culture were inoculated with a mycelium of phytopathogenic fungi. For control dishes the phytopathogenic fungi were inoculated on agar without using the composition of the invention. A fungicidal effect of the composition, according to the invention was tested in comparison with the known fungicidal compositions based on 2,3-dichloro-1,4-naphthoquinone, zinc N,N'-ethylene-bis-dithiocarbamate and tetramethylthiuram disulphide."}, "Botrytis cinereae [17]": {"test_system": "Botrytis cinereae", "experiment": "Inhibition of phytopathogenic fungi growth, laboratory test on potato-dextrose agar", "assay_type": "cell-based", "details": "active principle 0.01 % by mass in potato-dextrose agar", "description": "as §2"}, "Aspergillus niger [18]": {"test_system": "Aspergillus niger", "experiment": "Inhibition of phytopathogenic fungi growth, laboratory test on potato-dextrose agar", "assay_type": "cell-based", "details": "active principle 0.01 % by mass in potato-dextrose agar", "description": "as §2"}, "Fusarium culmorum [19]": {"test_system": "Fusarium culmorum", "experiment": "Inhibition of phytopathogenic fungi growth, laboratory test on potato-dextrose agar", "assay_type": "cell-based", "details": "active principle 0.01 % by mass in potato-dextrose agar", "description": "as §2"}, "Fusarium moniliforme [20]": {"test_system": "Fusarium moniliforme", "experiment": "Inhibition of phytopathogenic fungi growth, laboratory test on potato-dextrose agar", "assay_type": "cell-based", "details": "active principle 0.01 % by mass in potato-dextrose agar", "description": "as §2"}, "Venturia inaequalis [21]": {"test_system": "Venturia inaequalis", "experiment": "Inhibition of phytopathogenic fungi growth, laboratory test on potato-dextrose agar", "assay_type": "cell-based", "details": "active principle 0.01 % by mass in potato-dextrose agar", "description": "as §2"}, "Penicillium cyclopium [22]": {"test_system": "Penicillium cyclopium", "experiment": "Inhibition of phytopathogenic fungi growth, laboratory test on potato-dextrose agar", "assay_type": "cell-based", "details": "active principle 0.01 % by mass in potato-dextrose agar", "description": "as §2"}, "Aspergillus fumigatis [23]": {"test_system": "Aspergillus fumigatis", "experiment": "Inhibition of phytopathogenic fungi growth, laboratory test on potato-dextrose agar", "assay_type": "cell-based", "details": "active principle 0.01 % by mass in potato-dextrose agar", "description": "as §2"}, "Alternaria sobani [24]": {"test_system": "Alternaria sobani", "experiment": "Inhibition of phytopathogenic fungi growth, laboratory test on potato-dextrose agar", "assay_type": "cell-based", "details": "active principle 0.01 % by mass in potato-dextrose agar", "description": "as §2"}, "Rhoma betae [25]": {"test_system": "Rhoma betae", "experiment": "Inhibition of phytopathogenic fungi growth, laboratory test on potato-dextrose agar", "assay_type": "cell-based", "details": "active principle 0.01 % by mass in potato-dextrose agar", "description": "as §2"}, "Rhyzoctonia violaceae [26]": {"test_system": "Rhyzoctonia violaceae", "experiment": "Inhibition of phytopathogenic fungi growth, laboratory test on potato-dextrose agar", "assay_type": "cell-based", "details": "active principle 0.01 % by mass in potato-dextrose agar", "description": "as §2"}, "Rhyzoctonia aderholdii [27]": {"test_system": "Rhyzoctonia aderholdii", "experiment": "Inhibition of phytopathogenic fungi growth, laboratory test on potato-dextrose agar", "assay_type": "cell-based", "details": "active principle 0.01 % by mass in potato-dextrose agar", "description": "as §2"}, "Botrytis allii [28]": {"test_system": "Botrytis allii", "experiment": "Inhibition of phytopathogenic fungi growth, laboratory test on potato-dextrose agar", "assay_type": "cell-based", "details": "active principle 0.01 % by mass in potato-dextrose agar", "description": "as §2"}, "Fusarium oxysporum [29]": {"test_system": "Fusarium oxysporum", "experiment": "Inhibition of phytopathogenic fungi growth, laboratory test on potato-dextrose agar", "assay_type": "cell-based", "details": "active principle 0.01 % by mass in potato-dextrose agar", "description": "as §2"}, "Diplodia zeae [30]": {"test_system": "Diplodia zeae", "experiment": "Inhibition of phytopathogenic fungi growth, laboratory test on potato-dextrose agar", "assay_type": "cell-based", "details": "active principle 0.01 % by mass in potato-dextrose agar", "description": "as §2"}}, "data": [{"smiles": "COP(=O)(NC(=O)C(Cl)(Cl)CCl)Nc1ccccc1", "note": "(stereo not drawn) [Example 11, methyl α, α , β-trichloropropyonylamidophosphate monoanilide]", "values": [{"measurement": "Inhibition of growth of phytopathogenic fungi colonies, % Verticillium albo--atrum test field", "setting": "Verticillium albo-atrum [1]", "value": 54, "unit": "%"}, {"measurement": "Inhibition of growth of phytopathogenic fungi colonies, % Botrytis cinereae test field", "setting": "Botrytis cinereae [2]", "value": 39, "unit": "%"}, {"measurement": "Inhibition of growth of phytopathogenic fungi colonies, % Aspergillus niger test field", "setting": "Aspergillus niger [3]", "value": 96, "unit": "%"}, {"measurement": "Inhibition of growth of phytopathogenic fungi colonies, % Fusarium culmorum Tests field", "setting": "Fusarium culmorum [4]", "value": 98, "unit": "%"}, {"measurement": "Inhibition of growth of phytopathogenic fungi colonies, % Fusatium monili-forme test field", "setting": "Fusarium moniliforme [5]", "value": 38, "unit": "%"}, {"measurement": "Inhibition of growth of phytopathogenic fungi colonies, % Venturia inaequalis test field", "setting": "Venturia inaequalis [6]", "value": 52, "unit": "%"}, {"measurement": "Inhibition of growth of phytopathogenic fungi colonies, % Penicillium cyclopium Tests field", "setting": "Penicillium cyclopium [7]", "value": 90, "unit": "%"}, {"measurement": "Inhibition of growth of phytopathogenic fungi colonies, % Aspergillus fumigatis Tests field", "setting": "Aspergillus fumigatis [8]", "value": 93, "unit": "%"}, {"measurement": "Inhibition of growth of phytopathogenic fungi colonies, % Alternaria sobani test field", "setting": "Alternaria sobani [9]", "value": 66, "unit": "%"}, {"measurement": "Inhibition of growth of phytopathogenic fungi colonies, % Rhoma betae test field", "setting": "Rhoma betae [10]", "value": 65, "unit": "%"}, {"measurement": "Inhibition of growth of phytopathogenic fungi colonies, % Rhyzoctonia violaceae test field", "setting": "Rhyzoctonia violaceae [11]", "value": 60, "unit": "%"}, {"measurement": "Inhibition of growth of phytopathogenic fungi colonies, % Rhyzoctonia aderholdii test field", "setting": "Rhyzoctonia aderholdii [12]", "value": 100, "unit": "%"}, {"measurement": "Inhibition of growth of phytopathogenic fungi colonies, % Botrytis allii test field", "setting": "Botrytis allii [13]", "value": 78, "unit": "%"}, {"measurement": "Inhibition of growth of phytopathogenic fungi colonies, % Fusarium oxysporum test field", "setting": "Fusarium oxysporum [14]", "value": 60, "unit": "%"}, {"measurement": "Inhibition of growth of phytopathogenic fungi colonies, % Diplodia zeae test field", "setting": "Diplodia zeae [15]", "value": 98, "unit": "%"}, {"measurement": "solubility", "setting": "Solubility (qualitative)", "value": "soluble in water, alcohols, acetone"}, {"measurement": "Inhibition of growth of phytopathogenic fungi colonies, % Verticillium albo--atrum test laboratory", "setting": "Verticillium albo-atrum [16]", "value": 56, "unit": "%"}, {"measurement": "Inhibition of growth of phytopathogenic fungi colonies, % Botrytis cinereae test laboratory", "setting": "Botrytis cinereae [17]", "value": 43, "unit": "%"}, {"measurement": "Inhibition of growth of phytopathogenic fungi colonies, % Aspergillus niger test laboratory", "setting": "Aspergillus niger [18]", "value": 100, "unit": "%"}, {"measurement": "Inhibition of growth of phytopathogenic fungi colonies, % Fusarium culmorum Tests laboratory", "setting": "Fusarium culmorum [19]", "value": 100, "unit": "%"}, {"measurement": "Inhibition of growth of phytopathogenic fungi colonies, % Fusatium monili-forme test laboratory", "setting": "Fusarium moniliforme [20]", "value": 39, "unit": "%"}, {"measurement": "Inhibition of growth of phytopathogenic fungi colonies, % Venturia inaequalis test laboratory", "setting": "Venturia inaequalis [21]", "value": 54, "unit": "%"}, {"measurement": "Inhibition of growth of phytopathogenic fungi colonies, % Penicillium cyclopium Tests laboratory", "setting": "Penicillium cyclopium [22]", "value": 95, "unit": "%"}, {"measurement": "Inhibition of growth of phytopathogenic fungi colonies, % Aspergillus fumigatis Tests laboratory", "setting": "Aspergillus fumigatis [23]", "value": 93, "unit": "%"}, {"measurement": "Inhibition of growth of phytopathogenic fungi colonies, % Alternaria sobani test laboratory", "setting": "Alternaria sobani [24]", "value": 69, "unit": "%"}, {"measurement": "Inhibition of growth of phytopathogenic fungi colonies, % Rhoma betae test laboratory", "setting": "Rhoma betae [25]", "value": 67, "unit": "%"}, {"measurement": "Inhibition of growth of phytopathogenic fungi colonies, % Rhyzoctonia violaceae test laboratory", "setting": "Rhyzoctonia violaceae [26]", "value": 62, "unit": "%"}, {"measurement": "Inhibition of growth of phytopathogenic fungi colonies, % Rhyzoctonia aderholdii test laboratory", "setting": "Rhyzoctonia aderholdii [27]", "value": 100, "unit": "%"}, {"measurement": "Inhibition of growth of phytopathogenic fungi colonies, % Botrytis allii test laboratory", "setting": "Botrytis allii [28]", "value": 78, "unit": "%"}, {"measurement": "Inhibition of growth of phytopathogenic fungi colonies, % Fusarium oxysporum test laboratory", "setting": "Fusarium oxysporum [29]", "value": 62, "unit": "%"}, {"measurement": "Inhibition of growth of phytopathogenic fungi colonies, % Diplodia zeae test laboratory", "setting": "Diplodia zeae [30]", "value": 100, "unit": "%"}]}]}
